The first assay addresses T1, human AR (Homo sapiens, UniProt P10275).
T1 construct: expressed in transfected cells; host or cells: COS-1 cells
T1 sequence (P10275 1-920): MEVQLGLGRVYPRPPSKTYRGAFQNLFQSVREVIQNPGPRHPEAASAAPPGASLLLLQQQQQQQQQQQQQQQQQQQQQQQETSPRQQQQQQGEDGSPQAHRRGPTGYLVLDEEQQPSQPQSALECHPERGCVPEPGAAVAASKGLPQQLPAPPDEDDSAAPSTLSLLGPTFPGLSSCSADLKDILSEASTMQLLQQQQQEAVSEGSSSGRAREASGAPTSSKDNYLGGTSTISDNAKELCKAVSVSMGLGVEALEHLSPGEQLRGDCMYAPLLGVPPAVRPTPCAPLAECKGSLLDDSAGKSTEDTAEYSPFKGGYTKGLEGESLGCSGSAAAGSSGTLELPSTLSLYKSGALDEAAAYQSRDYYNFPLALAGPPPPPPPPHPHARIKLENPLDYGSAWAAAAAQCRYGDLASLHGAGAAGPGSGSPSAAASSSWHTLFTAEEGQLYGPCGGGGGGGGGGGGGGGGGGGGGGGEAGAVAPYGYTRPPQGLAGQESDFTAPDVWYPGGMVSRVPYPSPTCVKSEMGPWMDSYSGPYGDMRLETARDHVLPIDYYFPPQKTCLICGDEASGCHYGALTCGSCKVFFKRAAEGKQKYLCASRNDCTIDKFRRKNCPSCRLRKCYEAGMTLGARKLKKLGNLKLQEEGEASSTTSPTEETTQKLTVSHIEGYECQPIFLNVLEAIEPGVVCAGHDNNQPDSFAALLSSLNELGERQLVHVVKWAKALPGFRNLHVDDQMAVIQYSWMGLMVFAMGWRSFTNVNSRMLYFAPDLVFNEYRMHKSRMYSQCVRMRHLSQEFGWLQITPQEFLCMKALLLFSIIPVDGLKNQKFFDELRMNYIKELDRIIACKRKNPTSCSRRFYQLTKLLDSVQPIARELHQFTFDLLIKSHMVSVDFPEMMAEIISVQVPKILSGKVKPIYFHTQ
Put plainly: IR Binding Assay: whole cell competitive binding of test compounds against 3H-DHT in COS-1 cells transfected with pRShAR.
Settings: not given
Summed up: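 COS-1 cells transfected with pRShAR plus β-Gal reporter, serum-starved 24 h, then exposed to 1 nM ³H-DHT with compounds at 10^−10 to 10^−6 M for 3 h at 37 °C. Bound ³H-DHT counted in lysates, normalized to β-Gal. IC50 from log-logit plot; Ki via Cheng-Prusoff using Kd from Scatchard saturation analysis.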
What is called Ki is a measure of affinity in units of concentration, obtained from inhibition or displacement. With `Cc1c(CO)n(CC(F)(F)F)c2ccc3[nH]c(=O)cc(Cl)c3c12` [Compound 230, 9-Chloro-2-hydroxymethyl-1-methyl-3-(2,2,2-trifluoro-ethyl)-3,6-dihydro-pyrrolo[3,2-f]-quinolin-7-one], the inhibitory constant (Ki) is > 10 nM. The same measure, in the same setting: as for `Cc1c(C(F)(F)F)n(CC(F)(F)F)c2ccc3[nH]c(=O)cc(C(F)(F)F)c3c12` [Compound 234, 1-Methyl-3-(2,2,2-trifluoro-ethyl)-2,9-bis-trifluoromethyl-3,6-dihydro-pyrrolo[3,2-f]-quinolin-7-one], the figure is < 5 nM.

In the case of `Cc1c(CO)n(CC(F)(F)F)c2ccc3[nH]c(=O)cc(C(F)(F)F)c3c12` [Compound 235, 2-Hydroxymethyl-1-methyl-3-(2,2,2-trifluoro-ethyl)-9-trifluoromethyl-3,6-dihydro-pyrrolo[3,2-f]-quinolin-7-one], the Ki is > 10 nM. In the case of `C=CCn1c(C)c(C)c2c3c(C(F)(F)F)cc(=O)[nH]c3ccc21` [Compound 236, 3-Allyl-1,2-dimethyl-9-trifluoromethyl-3,6-dihydro-pyrrolo[3,2-f]quinolin-7-one], the Ki was < 5 nM.

For `C=C(C)Cn1c(C)c(C)c2c3c(C(F)(F)F)cc(=O)[nH]c3ccc21` [Compound 237, 1,2-Dimethyl-3-(2-methyl-allyl)-9-trifluoromethyl-3,6-dihydro-pyrrolo[3,2-f]quinolin-7-one], the Ki was < 5 nM.

As for `CC(C)=Cn1c(C)c(C)c2c3c(C(F)(F)F)cc(=O)[nH]c3ccc21` [Compound 238, 1,2-Dimethyl-3-(2-methylprop-1-enyl)-9-trifluoromethyl-3,6-dihydro-pyrrolo[3,2-f]-quinolin-7-one], the Ki is < 5 nM. The same measure, in the same setting: under `Cc1c(C)n(CCC(C)(C)O)c2ccc3[nH]c(=O)cc(C(F)(F)F)c3c12` [Compound 239, 3-(3-Hydroxy-3-methyl-butyl)-1,2-dimethyl-9-trifluoromethyl-3,6-dihydro-pyrrolo[3,2-f]-quinolin-7-one] stands > 10 nM. The same measure, in the same setting: as for `Cc1c(C)n(CCO)c2ccc3[nH]c(=O)cc(C(F)(F)F)c3c12` [Compound 240, 1,2-Dimethyl-3-(2-hydroxyethyl)-9-trifluoromethyl-3,6-dihydro-pyrrolo[3,2-f]quinolin-7-one], the figure is > 10 nM; as for `CC(=O)OCCn1c(C)c(C)c2c3c(C(F)(F)F)cc(=O)[nH]c3ccc21` [Compound 241, 3-(2-Acetoxyethyl)-1,2-Dimethyl-9-trifluoromethyl-3,6-dihydro-pyrrolo[3,2-f]quinolin-7-one], 5 to 10 nM. Turning to `C#CCn1c(C)c(C)c2c3c(C(F)(F)F)cc(=O)[nH]c3ccc21` [Compound 242, 1,2-Dimethyl-3-(prop-2-ynyl)-9-trifluoromethyl-3,6-dihydro-pyrrolo[3,2-f]quinolin-7-one], the Ki is < 5 nM. For the molecule `Cc1c(C)n(C[C@@H](O)C(F)(F)F)c2ccc3[nH]c(=O)cc(C(F)(F)F)c3c12` [Compound 244, (+)-1,2-Dimethyl-3-(3,3,3-trifluoro-2-hydroxy-propyl)-9-trifluoromethyl-3,6-dihydro-pyrrolo[3,2-f]-quinolin-7-one], the Ki is > 10 nM. The same measure, in the same setting: under `Cc1c(C)n(C[C@H](O)C(F)(F)F)c2ccc3[nH]c(=O)cc(C(F)(F)F)c3c12` [Compound 245, (−)-1,2-Dimethyl-3-(3,3,3-trifluoro-2-hydroxy-propyl)-9-trifluoromethyl-3,6-dihydro-pyrrolo[3,2-f]-quinolin-7-one] stands > 10 nM. The same measure, in the same setting: under `Cc1c(C)n(CCCF)c2ccc3[nH]c(=O)cc(C(F)(F)F)c3c12` [Compound 248, 1,2-Dimethyl-3-(3-fluoropropyl)-9-trifluoromethyl-3,6-dihydro-pyrrolo[3,2-f]quinolin-7-one] stands < 5 nM; under `Cc1c(C)n(CCCO)c2ccc3[nH]c(=O)cc(C(F)(F)F)c3c12` [Compound 249, 1,2-Dimethyl-3-(3-hydroxypropyl)-9-trifluoromethyl-3,6-dihydro-pyrrolo[3,2-f]quinolin-7-one], < 5 nM. In the case of `CC(=O)OCCCn1c(C)c(C)c2c3c(C(F)(F)F)cc(=O)[nH]c3ccc21` [Compound 250, 3-(3-Acetoxypropyl)-1,2-dimethyl-9-trifluoromethyl-3,6-dihydro-pyrrolo[3,2-f]quinolin-7-one], the inhibition constant (Ki) is < 5 nM. On the same count and under the same terms, under `Cc1c(-c2cccc(F)c2)n(CC(F)(F)F)c2ccc3[nH]c(=O)cc(Cl)c3c12` [Compound 251, 9-Chloro-2-(3-fluorophenyl)-1-methyl-3-(2,2,2-trifluoroethyl)-3,6-dihydro-pyrrolo[3,2-f]-quinolin-7-one] stands < 5 nM.

With `Cc1c(-c2nccs2)n(CC(F)(F)F)c2ccc3[nH]c(=O)cc(Cl)c3c12` [Compound 252, 9-Chloro-1-methyl-2-(1,3-thiazol-2-yl)-3-(2,2,2-trifluoroethyl)-3,6-dihydro-pyrrolo[3,2-f]-quinolin-7-one], the Ki was < 5 nM. On the same count and under the same terms, under `Cc1c(-c2cccnc2)n(CC(F)(F)F)c2ccc3[nH]c(=O)cc(Cl)c3c12` [Compound 253, 9-Chloro-1-methyl-2-(3-pyridyl)-3-(2,2,2-trifluoroethyl)-3,6-dihydro-pyrrolo[3,2-f]-quinolin-7-one] stands > 10 nM; under `Cc1c(C(F)(F)C(F)(F)F)n(CC(F)(F)F)c2ccc3[nH]c(=O)cc(Cl)c3c12` [Compound 255, 9-Chloro-1-methyl-2-(pentafluoroethyl)-3-(2,2,2-trifluoroethyl)-3,6-dihydro-pyrrolo[3,2-f]-quinolin-7-one], < 5 nM. Same read-out and setting: as for `Cc1c(-c2ncco2)n(CC(F)(F)F)c2ccc3[nH]c(=O)cc(Cl)c3c12` [Compound 257, 9-Chloro-1-methyl-2-(2-oxazolyl)-3-(2,2,2-trifluoroethyl)-3,6-dihydro-pyrrolo[3,2-f]-quinolin-7-one], the figure is < 5 nM. On the same count and under the same terms, as for `Cc1ccc(-c2c(C)c3c4c(Cl)cc(=O)[nH]c4ccc3n2CC(F)(F)F)s1` [Compound 258, 9-Chloro-1-methyl-2-(5-methyl-2-thiophenyl)-3-(2,2,2-trifluoroethyl)-3,6-dihydro-pyrrolo[3,2-f]quinolin-7-one], the figure is < 5 nM; as for `Cc1c(-c2cccs2)n(CC(F)(F)C(F)(F)F)c2ccc3[nH]c(=O)cc(Cl)c3c12` [Compound 259, 9-Chloro-1-methyl-3-(2,2,3,3,3-pentafluoropropyl)-2-thiophen-2-yl-3,6-dihydro-pyrrolo[3,2-f]quinolin-7-one], > 10 nM. Regarding `Cc1c(C(F)(F)F)n(CC(F)(F)C(F)(F)F)c2ccc3[nH]c(=O)cc(Cl)c3c12` [Compound 260, 9-Chloro-1-methyl-3-(2,2,3,3,3-pentafluoropropyl)-2-(trifluoromethyl)-3,6-dihydro-pyrrolo[3,2-f]quinolin-7-one], the Ki was > 10 nM.

With `Cc1c(-c2ccco2)n(CC(F)(F)C(F)(F)F)c2ccc3[nH]c(=O)cc(Cl)c3c12` [Compound 261, 9-Chloro-1-methyl-2-(2-furyl)-3-(2,2,3,3,3-pentafluoropropyl)-3,6-dihydro-pyrrolo[3,2-f]quinolin-7-one], the Ki is < 5 nM. Still for that read-out and setting: under `Cc1c(-c2nccs2)n(CC(F)(F)C(F)(F)F)c2ccc3[nH]c(=O)cc(Cl)c3c12` [Compound 262, 9-Chloro-1-methyl-3-(2,2,3,3,3-pentafluoropropyl)-2-(1,3-thiazol-2-yl)-3,6-dihydro-pyrrolo[3,2-f]quinolin-7-one] stands 5 to 10 nM; under `Cc1c(-c2ccncc2)n(CC(F)(F)C(F)(F)F)c2ccc3[nH]c(=O)cc(Cl)c3c12` [Compound 263, 9-Chloro-1-methyl-3-(2,2,3,3,3-pentafluoropropyl)-2-(4-pyridyl)-3,6-dihydro-pyrrolo[3,2-f]quinolin-7-one], < 5 nM. On the same count and under the same terms, as for `Cc1c(-c2cccnc2)n(CC(F)(F)C(F)(F)F)c2ccc3[nH]c(=O)cc(Cl)c3c12` [Compound 264, 9-Chloro-1-methyl-3-(2,2,3,3,3-pentafluoropropyl)-2-(3-pyridyl)-3,6-dihydro-pyrrolo[3,2-f]quinolin-7-one], the figure is < 5 nM.

The same assay, now with this note: competition with 1 nM 3H-DHT, transfected COS-1 cells, 3 h at 37° C., Cheng-Prusoff from IC50; read-out: Ki.
Turning to `Cc1c(-c2ccncc2)n(CC(F)(F)F)c2ccc3[nH]c(=O)cc(Cl)c3c12` [Compound 254, 9-Chloro-1-methyl-2-(4-pyridyl)-3-(2,2,2-trifluoroethyl)-3,6-dihydro-pyrrolo[3,2-f]-quinolin-7-one], the Ki is > 10 nM. Same read-out and setting: as for `Cc1ccc(-c2c(C)c3c4c(Cl)cc(=O)[nH]c4ccc3n2CC(F)(F)F)o1` [Compound 256, 9-Chloro-1-methyl-2-(5-methyl-2-furyl)-3-(2,2,2-trifluoroethyl)-3,6-dihydro-pyrrolo[3,2-f]-quinolin-7-one], the figure is < 5 nM.
